Assay results: patent publication US12528812B2 (Genentech, Inc., priority 2020, dated 2026)

Tests used:
[1] = system: IL-13-stimulated STAT6 phosphorylation in human lung bronchial epithelial BEAS-2B cell line; assay: P-STAT6 BEAS-2B + IL-13 cell assay; type: cell-based; settings: Homo sapiens, BEAS-2B, BEAS2B cells, IL13 stimulation; read-out: Cellular JAK1 PSTAT6 BEAS2B + IL13
In short: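 Phospho-STAT6 (Tyr641) was quantified in lysates by MSD electrochemiluminescence after human IL-13 challenge (250 ng/mL stock, 15 min, 37 °C). Before that, BEAS-2B cells cultured 48 h had 1 h compound exposure over 10 concentrations. Percent of control was fitted to a four-parameter logistic model to give IC50.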

[2] = target: Recombinant human JAK2 kinase domain protein (Residues 812-1132) (Homo sapiens, UniProt O60674); assay: JAK2 biochemical assay (LabChip mobility shift, Ki); settings: Biochem JAK2 Ki
Chain of Recombinant human JAK2 kinase domain protein (Residues 812-1132) (O60674 812-1132): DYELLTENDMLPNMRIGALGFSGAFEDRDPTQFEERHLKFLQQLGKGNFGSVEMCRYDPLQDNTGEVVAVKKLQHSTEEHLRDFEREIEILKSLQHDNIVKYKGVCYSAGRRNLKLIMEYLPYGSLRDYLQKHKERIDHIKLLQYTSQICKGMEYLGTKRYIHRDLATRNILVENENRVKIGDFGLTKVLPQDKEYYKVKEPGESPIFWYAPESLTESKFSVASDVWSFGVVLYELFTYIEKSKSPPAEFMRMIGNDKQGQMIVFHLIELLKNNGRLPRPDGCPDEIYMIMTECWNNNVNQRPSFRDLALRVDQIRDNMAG

[3] = target: T1, recombinant human JAK1 kinase domain protein (Residues 854-1154) (Homo sapiens, UniProt P23458); assay: JAK1 biochemical assay (LabChip mobility shift, Ki); settings: read-out: Biochem JAK1 Ki
T1 construct: human JAK1 kinase domain protein (Residues 854-1154); purchased Proteros Biostructures GmbH (Martinsried, Germany); host or cells: insect cells
T1 sequence (P23458 854-1154): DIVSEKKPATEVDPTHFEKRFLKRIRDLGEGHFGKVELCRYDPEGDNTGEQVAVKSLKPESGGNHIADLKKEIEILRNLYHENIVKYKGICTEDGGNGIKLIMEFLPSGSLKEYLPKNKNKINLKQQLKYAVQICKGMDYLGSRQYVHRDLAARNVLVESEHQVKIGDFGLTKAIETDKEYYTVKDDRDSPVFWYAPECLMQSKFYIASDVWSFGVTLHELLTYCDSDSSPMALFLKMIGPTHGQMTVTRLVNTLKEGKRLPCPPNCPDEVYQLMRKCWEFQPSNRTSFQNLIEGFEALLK

SMILES	Ki [2] [nM]	Ki [3] [nM]	IC50 [1] [nM]
Cn1cc(NC(=O)c2cnn3cccnc23)c(-c2cc(Oc3cnn(C4CCC4O)c3)ccc2OC(F)F)n1 (stereo not drawn) [Example 134, N-[3-[2-(difluoromethoxy)-5-[1-(2-hydroxycyclobutyl)pyrazol-4-yl]oxy-phenyl]-1-methyl-pyrazol-4-yl]pyrazolo[1,5-a]pyrimidine-3-carboxamide]	0.26	0.42	16
NCc1cccc(Oc2ccc(OC(F)F)c(-c3n[nH]cc3NC(=O)c3cnn4cccnc34)c2)c1 [Example 6, N-[3-[5-[3-(aminomethyl)phenoxy]-2-(difluoromethoxy)phenyl]-1H-pyrazol-4-yl]pyrazolo[1,5-a]pyrimidine-3-carboxamide]	0.2	0.23	11
CN1CC[C@@H](O)[C@H](n2cc(Oc3ccc(OC(F)F)c(-c4nn(C)cc4NC(=O)c4cnn5cccnc45)c3)cn2)C1 (stereo in doubt) [Example 185, N-[3-[2-(difluoromethoxy)-5-[1-[rac-(3R,4R)-4-hydroxy-l-methyl-3-piperidyl]pyrazol-4-yl]oxy-phenyl]-1-methyl-pyrazol-4-yl]pyrazolo[1,5-a]pyrimidine-3-carboxamide]	0.21	0.33	62
NCc1cc(Oc2ccc(OC(F)F)c(-c3n[nH]cc3NC(=O)c3cnn4cccnc34)c2)ccc1C(F)(F)F [Example 52, N-[3-[5-[3-(aminomethyl)-4-(trifluoromethyl)phenoxy]-2-(difluoromethoxy)phenyl]-1H-pyrazol-4-yl]pyrazolo[1,5-a]pyrimidine-3-carboxamide]	2.3	3	91
CN(C)C(=O)Cc1ccc(Oc2ccc(OC(F)F)c(-c3nn(C)cc3NC(=O)c3cnn4cccnc34)c2)cc1 [Example 129, N-[3-[2-(difluoromethoxy)-5-[4-[2-(dimethylamino)-2-oxo-ethyl]phenoxy]phenyl]-1-methyl-pyrazol-4-yl]pyrazolo[1,5-a]pyrimidine-3-carboxamide]	0.15	0.27	14
CN(C)C(=O)c1cc(Oc2ccc(OC(F)F)c(-c3nn(C)cc3NC(=O)c3cnn4cccnc34)c2)ccc1Cl [Example 78, N-[3-[5-[4-chloro-3-(dimethylcarbamoyl)phenoxy]-2-(difluoromethoxy)phenyl]-1-methyl-pyrazol-4-yl]pyrazolo[1,5-a]pyrimidine-3-carboxamide]	0.22	0.31	21
Cn1cc(NC(=O)c2cnn3cccnc23)c(-c2cc(Oc3cnn(C4CCNCC4O)c3)ccc2OC(F)F)n1 (stereo not drawn) [Example 182, N-[3-[2-(difluoromethoxy)-5-[1-(3-hydroxy-4-piperidyl)pyrazol-4-yl]oxy-phenyl]-1-methyl-pyrazol-4-yl]pyrazolo[1,5-a]pyrimidine-3-carboxamide]	0.43	0.65	160
CNCc1cccc(Oc2ccc(OC(F)F)c(-c3n[nH]cc3NC(=O)c3cnn4cccnc34)c2)c1 [Example 15, N-[3-[2-(difluoromethoxy)-5-[3-(methylaminomethyl)phenoxy]phenyl]-1H-pyrazol-4-yl]pyrazolo[1,5-a]pyrimidine-3-carboxamide]	0.4	0.32	24
Cc1cc(Oc2ccc(OC(F)F)c(-c3nn(C)cc3NC(=O)c3cnn4cccnc34)c2)cc(C2(O)CNC2)c1 [Example 101, N-[3-[2-(difluoromethoxy)-5-[3-(3-hydroxyazetidin-3-yl)-5-methyl-phenoxy]phenyl]-1-methyl-pyrazol-4-yl]pyrazolo[1,5-a]pyrimidine-3-carboxamide]	0.23	0.2	180
Cn1cc(NC(=O)c2cnn3cccnc23)c(-c2cc(Oc3cccc(-n4nccc4CN)c3)ccc2OC(F)F)n1 [Example 57, N-[3-[5-[3-[5-(aminomethyl)pyrazol-1-yl]phenoxy]-2-(difluoromethoxy)phenyl]-1-methyl-pyrazol-4-yl]pyrazolo[1,5-a]pyrimidine-3-carboxamide]	0.69	0.91	37
Cn1cc(NC(=O)c2cnn3cccnc23)c(-c2cc(Oc3ccc(CC(=O)N4CCOCC4)cc3)ccc2OC(F)F)n1 [Example 156, N-[3-[2-(difluoromethoxy)-5-[4-(2-morpholino-2-oxo-ethyl)phenoxy]phenyl]-1-methyl-pyrazol-4-yl]pyrazolo[1,5-a]pyrimidine-3-carboxamide]	0.12	0.27	23

Continued by falling Ki [2], values first:

Ki [2] [nM]	Ki [3] [nM]	SMILES	IC50 [1] [nM]
1.4	6.2	Cn1cc(NC(=O)c2cnn3cccnc23)c(-c2cc(Oc3ccc(CN4CC[C@@H](CO)C4)cc3)ccc2OC(F)F)n1 (racemic) [Example 172, N-[3-[2-(difluoromethoxy)-5-[4-[[rac-(3R)-3-(hydroxymethyl)pyrrolidin-1-yl]methyl]phenoxy]phenyl]-l-methyl-pyrazol-4-yl]pyrazolo[1,5-a]pyrimidine-3-carboxamide]	150
0.72	0.69	CCn1cc(NC(=O)c2cnn3cccnc23)c(-c2cc(Oc3cccc(C4(O)CN(C)C4)c3)ccc2OC(F)F)n1 [Example 108, N-[3-[2-(difluoromethoxy)-5-[3-(3-hydroxy-l-methyl-azetidin-3-yl)phenoxy]phenyl]-1-ethyl-pyrazol-4-yl]pyrazolo[1,5-a]pyrimidine-3-carboxamide]	60
0.66	1.5	CN1CC(CC#N)(n2cc(Oc3ccc(OC(F)F)c(-c4nn(C)cc4NC(=O)c4cnn5cccnc45)c3)cn2)C1 [Example 117, N-[3-[5-[1-[3-(cyanomethyl)-1-methyl-azetidin-3-yl]pyrazol-4-yl]oxy-2-(difluoromethoxy)phenyl]-1-methyl-pyrazol-4-yl]pyrazolo[1,5-a]pyrimidine-3-carboxamide]	84
0.53	1.3	Cn1cc(NC(=O)c2cnn3cccnc23)c(-c2cc(Oc3ccc4c(c3)CN(C3COC3)CC4)ccc2OC(F)F)n1 [Example 69, N-[3-[2-(difluoromethoxy)-5-[[2-(oxetan-3-yl)-3,4-dihydro-1H-isoquinolin-7-yl]oxy]phenyl]-1-methyl-pyrazol-4-yl]pyrazolo[1,5-a]pyrimidine-3-carboxamide]	37
0.4	1.3	Cc1cc(Oc2ccc(OC(F)F)c(-c3nn(C)cc3NC(=O)c3cnn4cccnc34)c2)ccc1C(=O)N1CCN(C)CC1 [Example 85, N-[3-[2-(difluoromethoxy)-5-[3-methyl-4-(4-methylpiperazine-1-carbonyl)phenoxy]phenyl]-1-methyl-pyrazol-4-yl]pyrazolo[1,5-a]pyrimidine-3-carboxamide]	110
0.25	0.35	O=C(Nc1cn(C2COC2)nc1-c1cc(Oc2ccccc2)ccc1OC(F)F)c1cnn2cccnc12 [Example 56, N-[3-[2-(difluoromethoxy)-5-phenoxy-phenyl]-1-(oxetan-3-yl)pyrazol-4-yl]pyrazolo[1,5-a]pyrimidine-3-carboxamide]	15
0.21	0.19	Cn1cc(NC(=O)c2cnn3cccnc23)c(-c2cc(Oc3cc(CN)ccc3F)ccc2OC(F)F)n1 [Example 28, N-[3-[5-[5-(aminomethyl)-2-fluoro-phenoxy]-2-(difluoromethoxy)phenyl]-1-methyl-pyrazol-4-yl]pyrazolo[1,5-a]pyrimidine-3-carboxamide]	19
